# Earlier results in US8048407B2, “In situ gelling self-reactive materials for embolization” (priority 2003, dated 2011).
# Settings: literature studies
compound,measurement,value
"C=CC(=O)NCNC(=O)C=C [NMBA, N,N-methylenebisacrylamide]",cross-link efficiency,0.0066
